This is an account of results in ChEMBL document CHEMBL1157709, “Enhancement of EGFR tyrosine kinase inhibition by C-C multiple bonds-containing anilinoquinazolines” (Bioorg Med Chem, 2010).

The source made the active and inactive calls. The rule behind the calls is not given here. Where only a bound is given, the exact number is not on record here.

Usually IC50 stands for the concentration that inhibits the measured activity by half. The term GI50 denotes the concentration that inhibits growth by half. Lower therefore signals more potent growth inhibition.

The target in test [1] is T1, Epidermal growth factor receptor (Homo sapiens, UniProt P00533). Description: Inhibition of recombinant EGFR by ELISA. (In an ELISA, binding on a coated surface is turned into a signal by an enzyme label.)
The target of test [2] is T1, Epidermal growth factor receptor. Description: Reversible inhibitory activity of EGF-induced EGFR phosphorylation in human A431 cells at 10 to 100 nM by immunoblot analysis. The conditions noted are these: A-431. A general note: Immunoblotting shows a protein as a band on a membrane.
Test [3] concerns A-431. Description: Cell cycle arrest in human A431 cells by accumulation at G1 phase at 3 uM after 24 hrs by propidium iodide staining-based flow cytometry (reference value: 39.8+/-0.2%). It counts as functional. For orientation: A flow cytometer gives signals particle by particle.
Test [4] has as its system A-431. Description: cells. Type of test: functional. As to conditions: Homo sapiens, A-431, 72 h.
Description: Growth inhibition of human A431 cells after 72 hrs by MTT assay
Test [5] deals with A-431. Description: Cell cycle arrest in human A431 cells by accumulation at S phase at 1 uM after 24 hrs by propidium iodide staining-based flow cytometry (reference value: 48.5+/-4.2%). Type of test: functional.
For test [6], the system named is A-431. Description: Induction of apoptosis in human A431 cells assessed as late apoptotic/necrotic cells level at 3 uM after 12 hrs by annexin V/propidium iodide staining-based flow cytometry (Rvb=0.6+/-0.1%). It counts as functional.
For test [7], the system named is A-431. Description: Induction of apoptosis in human A431 cells assessed as early apoptotic cells level at 3 uM after 12 hrs by annexin V/propidium iodide staining-based flow cytometry (Rvb=3.1+/-0.5%). Type of test: functional.
Test [8] deals with A-431. Description: Cell cycle arrest in human A431 cells by accumulation at G2/M phase at 1 uM after 24 hrs by propidium iodide staining-based flow cytometry (reference value: 11.1+/-3.1%). It counts as functional.
Test [9] relates to A-431. Description: Cell cycle arrest in human A431 cells by accumulation at G1 phase at 1 uM after 24 hrs by propidium iodide staining-based flow cytometry (reference value: 39.8+/-0.2%). Type of test: functional.
Test [10] concerns A-431. Description: Induction of apoptosis in human A431 cells assessed as viable cells level at 3 uM after 12 hrs by annexin V/propidium iodide staining-based flow cytometry (reference value: 95.4+/-0.5%). Type of test: functional.
The test system of test [11] is A-431. Description: Cell cycle arrest in human A431 cells by accumulation at G2/M phase at 3 uM after 24 hrs by propidium iodide staining-based flow cytometry (reference value: 11.1+/-3.1%). Type of test: functional.
Test [12] has as its system A-431. Description: Induction of apoptosis in human A431 cells assessed as pre-necrotic cells level at 3 uM after 12 hrs by annexin V/propidium iodide staining-based flow cytometry (Rvb=0.9+/-0.1%). Type of test: functional.
Test [13] deals with A-431. Description: Cell cycle arrest in human A431 cells by accumulation at S phase at 3 uM after 24 hrs by propidium iodide staining-based flow cytometry (reference value: 48.5+/-4.2%). Type of test: functional.

T1 sequence (P00533 whole entry): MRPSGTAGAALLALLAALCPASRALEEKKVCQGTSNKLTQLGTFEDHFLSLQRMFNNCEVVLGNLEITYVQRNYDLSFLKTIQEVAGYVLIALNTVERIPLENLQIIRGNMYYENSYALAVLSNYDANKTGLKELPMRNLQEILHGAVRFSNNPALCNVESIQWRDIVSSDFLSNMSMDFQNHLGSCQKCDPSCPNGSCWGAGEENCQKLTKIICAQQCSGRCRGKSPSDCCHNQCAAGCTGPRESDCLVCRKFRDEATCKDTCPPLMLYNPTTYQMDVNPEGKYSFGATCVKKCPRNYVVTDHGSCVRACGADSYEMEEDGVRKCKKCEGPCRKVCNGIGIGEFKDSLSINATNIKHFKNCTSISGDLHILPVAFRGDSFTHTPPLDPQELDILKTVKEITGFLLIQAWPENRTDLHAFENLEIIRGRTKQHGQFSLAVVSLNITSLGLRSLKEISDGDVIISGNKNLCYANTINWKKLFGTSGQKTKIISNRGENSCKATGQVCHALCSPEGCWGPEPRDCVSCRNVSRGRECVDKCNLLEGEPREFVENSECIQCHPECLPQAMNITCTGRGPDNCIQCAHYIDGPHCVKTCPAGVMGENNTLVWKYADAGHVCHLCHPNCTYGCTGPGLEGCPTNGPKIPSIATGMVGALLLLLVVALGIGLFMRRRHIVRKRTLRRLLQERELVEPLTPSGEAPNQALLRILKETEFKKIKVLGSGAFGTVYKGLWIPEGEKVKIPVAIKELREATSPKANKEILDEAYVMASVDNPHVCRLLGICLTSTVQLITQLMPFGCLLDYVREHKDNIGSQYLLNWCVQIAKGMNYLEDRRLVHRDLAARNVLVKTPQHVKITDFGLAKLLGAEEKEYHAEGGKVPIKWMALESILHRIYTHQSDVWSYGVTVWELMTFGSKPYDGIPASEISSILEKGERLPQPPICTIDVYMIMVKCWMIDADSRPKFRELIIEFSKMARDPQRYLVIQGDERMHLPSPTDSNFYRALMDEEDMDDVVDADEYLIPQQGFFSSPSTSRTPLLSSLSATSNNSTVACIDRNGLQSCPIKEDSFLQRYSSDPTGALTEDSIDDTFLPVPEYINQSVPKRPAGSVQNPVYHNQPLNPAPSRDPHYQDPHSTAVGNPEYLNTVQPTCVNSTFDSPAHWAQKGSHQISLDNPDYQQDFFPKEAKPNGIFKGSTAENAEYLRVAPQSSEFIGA

Regarding `C#Cc1cc2c(Nc3ccc(F)c(Cl)c3)ncnc2cc1OC`, in test [1], the IC50 is > 1 µM.

For `C=CCCCCOc1cc2c(Nc3ccc(F)c(Cl)c3)ncnc2cc1OC`, the IC50 in test [1] was 0.0326 µM.

For the compound `C#CCOc1cc2c(Nc3ccc(F)c(Cl)c3)ncnc2cc1OC`, the 50% inhibitory concentration (IC50) in test [1] came out at 0.0148 µM. In addition, the inhibition entry in test [2] was “Active”.

`C#CCCCCCOc1cc2c(Nc3ccc(F)c(Cl)c3)ncnc2cc1OC`: the IC50 in [1] amounted to 0.0327 µM.

With `CCCCCCOc1cc2c(Nc3ccc(F)c(Cl)c3)ncnc2cc1OC`, in test [1], the IC50 was determined as 0.106 µM.

Consider `C#CCCCOc1cc2c(Nc3ccc(F)c(Cl)c3)ncnc2cc1OC`, for which the Activity in the test on A-431 [3] is recorded as 65.3%; in the test on A-431 [5], 34.7%; with A-431 [6], 4.2%; in the test with A-431 [7] it was 13.5%; with A-431 [8], 11.7%; with A-431 [9], 53.5%. Also, the Activity in the test on A-431 [10] came out at 81.2%; in the test with A-431 [11], 12.5%; in the test with A-431 [12], 1.1%; with A-431 [13], 22.1%. The compound further displayed a GI50 in the test on A-431 [4] of 0.221 µM. The IC50 in [1] was 0.00253 µM.

As for `C#CCOc1cc2c(Nc3cccc(Cl)c3)ncnc2cc1OC`, the IC50 in [1] came out at 0.0259 µM. Moreover, the inhibition result in [2] was “Active”.

As to `C#CCCCOc1cc2c(Nc3cccc(Cl)c3)ncnc2cc1OC`, the IC50 in [1] is 0.0177 µM.
